Measured values published in patent publication US20250235501A1, “Methods and Compositions for Treating or Preventing Neurological Injury or Neurological Disorders” (University of Connecticut, priority 2024, published 2025).

Columns and labels:
[1] = system: NMDARs; test: NMDAR currents in cultured cortical neurons of WT and TRPM2-KO mice (whole cell recording); type: cell-based, mouse; details: for NMDAR current amplitude in WT neurons: 1 μM compound overnight, 10 μM NMDA, -80 mV, compared with TRPM2-KO neurons
Experimental: FIGS. 4O and 4P show the effects of stausporine on NMDAR currents recorded from cortical neurons cultured for 14 days. FIG. 4O show representative NMDAR currents elicited at −80 mV by 10 μM NMDA in WT and TRPM2-KO (gM2KO) neurons treated with or without Stausporine at 1 μM for overnight. FIG. 4P show the average current amplitude (ns, p>0.05; **, p<0.01; ANOVA, Bonferroni's test; mean±SEM, n=11, 10, 10, 12 neurons from 2 mice respectively).
FIG. 4S show representative NMDAR currents elicited by NMDA in WT and TRPM2-KO neurons treated with or without endosidin2 at 1 μM for overnight.
FIGS. 5I-5K show the effects of TAT-EE3 on PKC induced changes of NMDAR currents recorded in cortical neurons of WT and TRPM2-KO. Neurons were incubated with 10 μM TAT-SC or TAT-EE3 for overnight before current recording. FIG. 5I show representative NMDAR currents elicited by 10 μM NMDA at −80 mV before and after PMA (1 μM) perfusion for 20 s. TAT-SC or TAT-EE3 10 μM was included in the pipette solution for current recording.
FIGS. 6A and 6B show the effects of TAT-EE3 on NMDAR currents in WT and gM2KO cortical neurons cultured for 14 days. […] TAT-SC or TAT-EE3 10 μM was included in the pipette solution during current recording.
Mice pups at P0 were euthanized based on animal protocol. Whole brain was dissected out immediately and immersed in ice-cold Hank's Balanced Salt Solution (HBSS). Meninges were removed thoroughly, and tissue of different brain areas was taken based on purposes. Brain tissue was cut into small pieces and digested with 0.25% trypsin (Thermal Fisher Scientific, 15090-046) in HBSS at 37° C. for 20 min. Digestion solution was quickly removed, and tissue pellets are washed with Neurobasal® Medium (Thermal Fisher Scientific, 21103-049) for 3 times. Cells were resuspended with appropriate amount of Neurobasal® Medium supplemented with 2% B27® supplement (Thermal Fisher Scientific, 17504-044), 3% horse serum (Thermal Fisher Scientific, 16050114), 0.25% L-glutamine (Thermal Fisher Scientific, 25030-081) and 1% penicillin/streptomycin (Thermal Fisher Scientific, 15140-122). Isolated cells were counted and plated on coverslips pre-coated with poly-L-lysine (Sigma-Aldrich, P4707) at a density about 500×10^3 cells/cm2 for OGD and H2O2 treatment, and 100×10^3 cells/cm2 for current recording. Cytosine arabinoside (Sigma-Aldrich, C1768) was added to maintain a concentration at 1 μM to inhibit the proliferation of non-neuronal cells. 24 h after plating, culture medium was changed to Neurobasal® Medium supplemented with 2% B27® supplement, 0.25% L-glutamine and 1% penicillin/streptomycin. The concentration of Cytosine arabinoside (araC) was increased to 2 μM. Medium was changed every 3 days. OGD and H2O2 treatment was conducted at 7th day of culture, and current recording was conducted at 7th, 10th and 14th day of culture.
Whole cell currents were recorded using an Axopatch 200B amplifier. Data were digitized at 10 or 20 kHz and digitally filtered offline at 1 kHz. Patch electrodes were pulled from borosilicate glass and fire-polished to a resistance of ˜3 MΩ when filled with internal solutions. Series resistance (Rs) was compensated up to 90% to reduce series resistance errors to <5 mV. Cells in which Rs was >10 MΩ were discarded (Du, J., Xie, J., and Yue, L. (2009). Modulation of TRPM2 by acidic pH and the underlying mechanisms for pH sensitivity. J Gen Physiol 134, 471-88).
For heterologous expression, transfected HEK-293 cells were identified by GFP fluorescence. TRPM2 current recording in transfected HEK-293T cells was performed as we previously reported (Du, J., Xie, J., and Yue, L. (2009). Intracellular calcium activates TRPM2 and its alternative spliced isoforms. Proceedings of the National Academy of Sciences 107, 7239-44; Du, J., Xie, J., and Yue, L. (2009). Modulation of TRPM2 by acidic pH and the underlying mechanisms for pH sensitivity. J Gen Physiol 134, 471-88). […]

[2] = system: NMDARs (GluN1a, GluN2a, GluN2b); test: Surface expression of NMDARs in HEK293T cells co-transfected with NMDARs and TRPM2 (WB); type: cell-based, human; details: 1 μM compound overnight
Experimental: FIGS. 4K-4N show the surface expression of NMDARs in HEK-293T cells co-transfected with TRPM2 or EGFP with the treatment of PKC activator PMA (FIG. 4K) and inhibitor Stausporine (FIG. 4L). Membrane (Mem) and cytocol (Cyto) NMDARs were analyzed and averaged from 3 independent experiments with 1 μM PMA treatment (FIG. 4N) or 1 μM Stausporine treatment (FIG. 4L) for overnight. Pan-cadherin and β-tubulin were loading controls for membrane and cytosol protein, respectively (*, p<0.05, **, p<0.01, ***, p<0.001, unpaired t-test, mean±SEM, n=3/group).
FIGS. 5C-5F effects of TAT-EE3 on surface expression of NMDARs. HEK293T cells co-transfected with NMDARs with TRPM2 (+M2) or EGFP vector (Con) were treated with 10 μM TAT-SC (FIG. 5C) or TAT-EE3 (FIG. 5D) overnight. Membrane (Mem) and cytosol (Cyto) proteins of NMDARs in TAT-SC (FIG. 5E) and TAT-EE3 (FIG. 5F) treated groups were assessed by WBs and analyzed in reference to Pan-cadherin or β-tubulin (**, p<0.01, ***, p<0.001, unpaired t-test, mean±SEM). All the results were replicated in at least 3 independent experiments.
Pan-cadherin and β-tubulin were used as loading control for membrane and cytosolic protein extraction.
were ordered from GenScript Biotech, and dissolved in PBS to make a stock concentration at 10 mM. HEK-293T cells or isolated neurons were treated with TAT-SC or TAT-EE3 at a concentration of 10 μM for at least 8 h prior to use. Mice were injected with TAT-SC or TAT-EE3 intraperitoneally (ip) at a dose of 100 nmol/kg.
HEK293T cells were cultured in Dulbecco's Modified Eagle's medium (DMEM) (Thermal Fisher Scientific, 12100-038) supplemented with 10% BGS (HyClone, SH30541.03) and 0.5% penicillin/streptomycin (Thermal Fisher Scientific, 15140-122) at 37° C. and 5% CO2. 8 h prior to transfection, culture medium was replaced with DMEM supplemented only with 2.5% BGS. Cells were transfected when at a confluence about 80-90% using Lipofectamine® 3000 Transfection Kit (Thermal Fisher Scientific, 2232162) based on instruction.
NP-40/Triton lysis buffer ([…], 1% Triton™ X-100, 150 mM NaCl, 1 mM EDTA, 50 mM Tris, pH=8.0) containing proteinase inhibitors and phosphatase inhibitors was used to lyse both cultured cells and frozen brain tissue. Surface protein was extracted using Pierce® Cell Surface Protein Isolation Kit (Thermal Fisher Scientific, 89881) in transfected HEK-293T cells, and using ProteoExtract™ Native Membrane Protein Extraction Kit (Calbiochem, 444810) in brain tissue based on instructions. […] Protein concentration was measured using Pierce™ Rapid Gold BCA Protein Assay Kit.
30-50 μg of total protein was loaded and separated proteins were transferred to Nitrocellulose membranes. […] Band intensity was quantified using ImageJ software and normalized with appropriate loading controls.

| Structure (SMILES) | NMDAR current amplitude in WT neurons [1] | surface expression level of NMDARs in cells transfected with NMDARs and TRPM2 [2] | increase of NMDA-induced current by PMA ([1]; WT neurons, PMA 1 μM perfusion for 20 s) | NMDA-induced current after PMA perfusion ([1]; WT neurons, PMA 1 μM perfusion for 20 s, before PMA 1542.1±117.1 pA) [pA] |
| --- | --- | --- | --- | --- |
| COc1cc(/C=N/NC(=O)c2cccc(F)c2)cc(I)c1O [Endosidin 2, reference compound] | abolished the increased current amplitude | prevented the increase |  |  |
| CCCCCCCCCCCCCC(=O)O[C@@H]1[C@@H](C)[C@@]2(O)[C@@H](C=C(CO)C[C@]3(O)C(=O)C(C)=C[C@@H]23)[C@@H]2C(C)(C)[C@]12OC(C)=O [PMA, Phorbol-12-myristate-13-acetate, reference compound] |  | much higher level of surface NMDARs | about 1.5 fold | 3642.1±180.8 |
| CN[C@@H]1C[C@H]2O[C@@](C)([C@@H]1OC)n1c3ccccc3c3c4c(c5c6ccccc6n2c5c31)C(=O)NC4 [stausporine, reference compound] | normalized NMDAR current amplitude in the WT neuron to the similar amplitude level of NMDAR current in TRPM2-KO neurons | abolished the enhanced surface expression level |  |  |
